The record followed here is patent US20260356849A1, “COMPOUNDS AND METHODS FOR TREATING CANCERS” (CEDARS-SINAI MEDICAL CENTER, priority 2022, published 2026).

Common to all, as to format: cell-based
For one data set, the system named is RKO cells. In words: MTT assay in RKO cells. As to conditions: Homo sapiens. How it is done: (§1) The inventors identified nine inhibitors and perfomed an EdU assay after treating non-malignant (HEK293, AML12) and malignant (HepG2, MzChA-1, HT-29, RKO) cells with varying concentrations of GIT1 inhibitor for 24 hours (results are mean±SE from 3 independent experiments done in duplicates, *p<0.05 vs. DMSO). An MTT assay was also performed after treating primary human and mouse hepatocytes and liver and colon cancer cells with varying concentrations of GIT1 inhibitor for 24 hours (results are mean±SE from 3 independent experiments done in duplicates, *p<0.05 vs. DMSO). […] Percoll may be used to remove dead human hepatocytes.
On the technique in general: Tetrazolium assays rely on reduction of a dye to a coloured formazan, in cell work by metabolically active cells.

The next data set concerns HepG2 cells. In words: MTT assay in HepG2 cells. As to conditions: Homo sapiens. The method, then: as §1
The subject of another data set is mouse hepatocytes. Put plainly: Toxicity in mouse hepatocytes. As to conditions: data not shown. The method, then:
as §1

A further data set concerns human hepatocytes. In words: Toxicity in human hepatocytes. As to conditions: data not shown. The method, then:
as §1

Each structure is given as a SMILES string.

On to `CC1(C)Cc2nc3sc4c(=O)n(CC(=O)N5CCOCC5)cnc4c3cc2CO1` [Compound C33], for which the IC50 with RKO cells was 0.98 µM; in the data set with HepG2 cells, 0.83 µM. For the same molecule, the “toxicity in mouse hepatocytes” value in the data set with mouse hepatocytes is reported as “no toxicity”. For the same molecule, in the data set with human hepatocytes, the “toxicity in human hepatocytes” value was “no toxicity”.
As for `COc1cccc(NC(=O)Cn2cnc3c(sc4nc5c(cc43)COC(C)(C)C5)c2=O)c1` [Compound C39], the figures for the IC50 in the data set on RKO cells and with HepG2 cells were over 50 µM and over 25 µM, respectively.
On the same counts, the results for `CC(=O)c1ccc(NC(=O)Cn2cnc3c(sc4nc5c(cc43)COC(C)(C)C5)c2=O)cc1` [Compound C38] are over 25 µM and over 50 µM.

The term IC50 denotes the midpoint of a concentration-inhibition curve.
